Experimental findings from US11603387B2, “SOCS mimetics for the treatment of diseases” (UNIVERSITY OF FLORIDA RESEARCH FOUNDATION, INC., priority 2014, dated 2023) are described below.

One assay concerns SOCS1. Put plainly: SOCS1 expression (qPCR, relative to GAPDH) in healthy control PBMCs treated in vitro. In kind it is cell-based, human. The following applies: chloroquine diphosphate salt for 12 and 24 h. The method, then:
FIGS. 9A and 9B. SOCS1 expression is not affected by chloroquine treatment, but is increased by dexamethasone treatment. (FIG. 9A) PBMCs, taken from healthy controls, were treated with (FIG. 9A) chloroquine diphosphate salt at the indicated molar concentrations for 12 and 24 h or (FIG. 9B) dexamethasone at the indicated molar concentrations for 3, 6, 12, or 24 h. Post treatment, SOCS1 expression, relative to GAPDH, was assessed via qPCR. Results shown as mean±s.e.m. The Kruskal-Wallis test followed by the Dunn's Multiple Comparison Test was chosen to assess statistical significance. (*P<0.05).
PBMCs were purified from heparinized blood by Ficoll-Paque gradient centrifugation. Briefly, whole blood was diluted with PBS (1:1) and gently layered on the Ficoll (Lymphocyte Separation Medium; Cellgro, Manassas, Va.). […]
Using the Promega RNA extraction protocol, total RNA was extracted from human PBMCs ex vivo or from mouse CD4^+CD25^− cells after being cultured under control (anti-CD3 and anti-CD28) or Th17 inducing conditions in the presence or absence of SOCS1-KIR peptide. cDNA synthesis and qPCR were performed as described in (Collins et al. 2011), with modifications. […] The amplification reactions took place in a PTC-200 Peltier Thermal Cycler with a CHROMO 4 Continuous Fluorescence Detector (BioRad). […] The fold change in expression was calculated using the ΔΔCT method.

In another assay the test system is SLE patients. Briefly: Subgroup analysis of SLE patients with and without prednisone treatment (PBMC western blot, RT-PCR). Type of assay: in vivo, human. The following applies: SLE patients receiving vs not receiving prednisone. The source says:
FIGS. 20A-20F. […] Results shown are mean±SE; *represents significant Pearson correlation; ^ represents a t-test with significant mean difference. Correlation was considered significant at 0.05 level (2 tailed).
The UF Institutional scientific research and review board (IRB) on human subjects approved the study protocol. Written informed consent were obtained from all patients and controls in the study. In all, 34 SLE patients and 11 healthy controls were enrolled in the present study (Table 5). All SLE patients fulfilled the 1982 American College of Rheumatology (ACR) revised criteria for SLE (Tan et al. 1982). The patient's age ranged from 22 to 73 years while the health controls age ranged from 27 to 55 years. Healthy controls (N=11) were recruited from the outpatient clinics at the participating institutions. All patients underwent baseline investigations as per clinical requirements. Disease activity was assessed by the SLE disease activity index (SLEDAI) (Bombardier et al. 1992).
PBMCs were purified from heparinized blood by Ficoll-Hypaque gradient centrifugation. Briefly, whole blood was diluted with PBS (1:1) and gently layered on Ficoll (Lymphocyte Separation Medium; Cellgro, Manassas, Va.). Cells were centrifuged continuously at 400×g for 20 minutes. PBMCs were collected from the interface layer and washed 3 times with PBS. After isolation, PBMCs were lysed with RNA lysis buffer (Promega) and stored at −80° C. until RNA extraction and qPCR protocols were performed.
RT-PCR was performed to determine the transcript levels of SOCS1, SOCS3 and STAT1 genes in PBMCs, relative to GAPDH. In brief, cDNA synthesis was performed using the iQ cDNA synthesis kit (Bio-Rad; Hercules, Calif.). The qPCR was subsequently performed using the iQ SYBR Green Super mix (Bio-Rad) and gene-specific primers for SOCS1, SOCS3, IFN-G and IL-27. The real time RT-PCR reaction was performed on CFX Connect™-Real time system. The PCR for the target gene and GAPDH was duplicated twice for each sample and the results were corrected for GAPDH expression as an internal control. Further the data was analyzed using CFX Manager™ software version 3.0 (Bio-Rad technologies, Inc.).
Frozen PMBC cell pellets were thawed and lysed in RIPA lysis buffer (Santa Cruz Technologies, Inc.) followed by protein estimation through BSA 2.0 mg/ml standard curve preparation with Pierce protein assay reagents (Thermo Scientific Product #23209). Equal quantities of proteins were loaded and separated in 4%-12% SDS PAGE gel (Bio-rad) and separated proteins were transferred to nitrocellulose membrane (Bio-Rad Laboratories, Hercules, Calif.). The membranes were then blocked and incubated with polyclonal anti-rabbit antibodies specific to the KIR regions of SOCS1 and SOCS3 (a kind gift from Dr. Howard Johnson Labs, UF), anti-pSTAT1; anti-pERK1/2; anti-pAKT and for total STAT1; ERK1/2 and AKT respectively (Cell signaling). Further probed with appropriate secondary antibodies conjugated to HRP, and visualized with the ECL detection system according to the manufacturer's instruction (Pierce; Thermo Scientifics) The GAPDH was used as a loading control. The results were calculated as densitometry arbitrary units using the J image online software.

Assay [1] has as its system CD4+CD25− T cells from C56BL/6 mice. Briefly: Th17 induction (iTh17) and activation of CD4+CD25− T cells, SOCS1 monomer vs dimer. In kind it is cell-based, mouse. The following applies: Th17 inducing conditions, peptide 20 μM, 5 days. On the procedure:
FIG. 11. […] CD4+CD25− T cells from B6 mice were in the presence of Th17 inducing conditions in the presence of SOCS1 monomer or dimer for 5 days. Cells were re-stimulated with PMA, ionomycin, and brefeldin, followed by staining with anti-CD4, anti-IL17, and anti-CD25 antibodies.
Induction of Th17 cells, iTh17, and the effect of treatment on induction is illustrated in FIG. 11. CD4^+CD25^− T cells from C56BL/6 mice were incubated for 5 days at 37° C. under 1) control conditions (anti-CD3 (10 μg/ml), anti-CD28 (1.5 μg/ml)); 2) Th17 inducing conditions (anti-CD3, anti-CD28, IL-6 (20 ng/ml), TGF-β (5 ng/ml)); 3) Th17 inducing conditions with SOCS1 monomer (20 μM), or Th17 inducing conditions with SOCS1 dimer (20 μM). Following a 5-day incubation, cells were re-stimulated with phorbol myristic acetate (PMA) (50 ng/ml), ionomycin (1 μM), and brefeldin A (10 μg/ml). To assess Th17 differentiation, cells were stained with anti-CD4 and anti-IL-17A antibodies. To assess activation, cells were stained with anti-CD4 and anti-CD25 antibodies.

A further assay concerns the target JAK2 (Homo sapiens, UniProt O60674). Briefly: Binding to the activation loop of JAK2. The following applies: dimer compared with monomer.
Another assay is described as follows: Anti-cellular activity. Type of assay: cell-based. The following applies: dimer compared with monomer.

JAK2, sequence (O60674 whole entry, species assumed): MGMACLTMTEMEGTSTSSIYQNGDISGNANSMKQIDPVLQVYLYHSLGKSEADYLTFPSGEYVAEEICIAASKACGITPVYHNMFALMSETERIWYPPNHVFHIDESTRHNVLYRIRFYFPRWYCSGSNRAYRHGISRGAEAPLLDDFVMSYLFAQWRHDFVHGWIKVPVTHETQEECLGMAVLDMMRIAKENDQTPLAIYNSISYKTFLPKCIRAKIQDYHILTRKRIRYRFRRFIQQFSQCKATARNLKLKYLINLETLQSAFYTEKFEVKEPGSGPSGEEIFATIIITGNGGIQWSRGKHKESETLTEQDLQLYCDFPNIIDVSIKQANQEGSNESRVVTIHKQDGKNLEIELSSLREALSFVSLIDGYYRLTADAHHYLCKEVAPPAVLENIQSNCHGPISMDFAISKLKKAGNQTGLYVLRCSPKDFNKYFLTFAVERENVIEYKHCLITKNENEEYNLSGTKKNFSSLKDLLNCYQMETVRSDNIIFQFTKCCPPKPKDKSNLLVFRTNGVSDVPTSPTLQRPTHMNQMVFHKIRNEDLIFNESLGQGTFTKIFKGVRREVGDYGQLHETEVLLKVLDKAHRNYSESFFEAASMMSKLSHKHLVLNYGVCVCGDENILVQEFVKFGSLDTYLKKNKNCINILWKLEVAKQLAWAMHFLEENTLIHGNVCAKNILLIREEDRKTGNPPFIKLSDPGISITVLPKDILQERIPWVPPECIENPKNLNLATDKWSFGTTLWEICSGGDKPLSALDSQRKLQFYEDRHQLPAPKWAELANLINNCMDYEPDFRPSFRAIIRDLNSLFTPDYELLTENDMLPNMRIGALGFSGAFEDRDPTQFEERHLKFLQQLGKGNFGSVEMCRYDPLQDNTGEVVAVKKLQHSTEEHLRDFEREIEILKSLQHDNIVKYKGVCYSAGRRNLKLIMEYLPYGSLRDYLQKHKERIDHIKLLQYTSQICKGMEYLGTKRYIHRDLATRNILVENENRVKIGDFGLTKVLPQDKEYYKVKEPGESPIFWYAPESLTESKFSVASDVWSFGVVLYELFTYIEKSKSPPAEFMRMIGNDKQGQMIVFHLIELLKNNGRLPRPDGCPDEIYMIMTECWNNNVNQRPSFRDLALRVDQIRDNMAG

`CCN(CC)CCCC(C)Nc1ccnc2cc(Cl)ccc12` (stereo not shown) [chloroquine]: in the assay on SOCS1, the SOCS1 expression result is recorded as “not affected”.

For `C[C@]12C=CC(=O)C=C1CC[C@@H]1[C@@H]2C(=O)C[C@@]2(C)[C@H]1CC[C@]2(O)C(=O)CO` [prednisone], in the assay on SLE patients, the “SOCS 1/3 message expression” value is “no effect”, the SOCS3 protein levels entry is “no effect” and the STAT1 phosphorylation entry was “no effect”. Moreover, the SOCS1 protein levels entry in the assay on SLE patients (significant in inactive SLEDIA (n=9, p<0.001)) is “consistently had higher SOCS1 protein levels”. The pErk1/2 activation result with SLE patients (significant in inactive SLEDIA patients) is “higher levels of pErk1/2 activation”.

As to “DTHFRTFRSHSDYRRIGGGGGGDTHFRTFRSHSDYRRI (SOCS1-KIR dimer peptide) [SOCS1-KIR mimetic as a dimer with a six glycine (G) linker]”, in assay [1], the “Inhibition of CD4+ T cell activation (CD25 staining)” value is given as “More Effective than SOCS1 Monomer” and the “Inhibition of iTh17 induction (IL-17A staining)” value is “greater inhibitory effects on iTh17 than did the monomer”. The “Avidity for the activation loop of JAK2” value with JAK2 is “significantly increased the avidity”. Besides, the Anti-cellular activity entry in “Anti-cellular activity” is given as “increased anti-cellular activity”.
